Like-named read-outs stand apart in the source and are kept apart here.
Tests used:
[1] = system: cerebral hemorrhage model with the use of SHR; assay: Cerebral hemorrhage in MCA occlusion-recanalization model, intracerebral hemoglobin by ELISA; type: in vivo, rat; conditions: 24 hours after MCA occlusion, sham 4.5±0.74, saline 19.6±2.21
Method: For the animal, a male spontaneously hypertensive rat (hereinafter abbreviated to SHR) (14 to 15 week old); Japan Charles River) was used. The preparation of middle cerebral artery (hereinafter abbreviated to MCA) occlusion-recanalization model of rat was performed according to the method of Koizumi, et al., (in Stroke 8: 1-7, 1986). In particular, the rat was subjected to anesthetic induction by 4% halothane (halothane vaporizer, Shinano Co., Ltd.) in 30% oxygen/70% air. The anesthesia was maintained by means of 2.5% halothane. The animal was placed in a dorsal position. The dissection of anterior neck midline was performed, the left side of the common carotid artery and the external carotid artery were exfoliated from the surrounding connective tissue around the left carotid artery bifurcation, and then a thread was hooked around the artery to ligate, respectively. Afterwards, the left internal carotid artery was exfoliated from the surrounding connective tissue, and then a thread was hooked around the artery. The range of about 5 mm from the tip of a 4-0 nylon thread for surgery (NC sterilization operation thread, Nichiyo industry Co., Ltd.) (25 mm long) was silicon-coated with an impression material for dentistry (mixture solution of XANTOPREN VL plus and OPTOSIL-XANTOPREN ACTIVATOR, Heraeus Dental Material Co., Ltd.). Then the thread was inserted to the left carotid artery from the left carotid artery bifurcation. Then, the origin part of the left MCA was occluded by means of fixing with a Sugita type clip (Mizuho Medical Industry Co., Ltd.). Nine hours after the occlusion, rat was subjected to anesthetic induction with 4% halothane in 30% oxygen/70% air. The anesthesia was maintained by means of 2.5% halothane. […] An amount of cerebral hemorrhage was measured 24 hours after the MCA occlusion.
In addition, intracerebral hemoglobin content can be also measured by using the following methods, in particular, an enzyme-linked immunosorbent assay (ELISA). […]

[2] = system: normal human umbilical cord vein endothelial cell; assay: Effect on vascular endothelial cell death induced by hydrogen peroxide (WST-1 method); type: cell-based; conditions: 0.5 mM hydrogen peroxide, 6 hours, compound added 15 minutes before
Method: A normal human umbilical cord vein endothelial cell (Cat. No. CRL-1730; Dainippon Pharmaceutical Co., Ltd.) was cultured in serum-containing liquid culture medium for vascular endothelial cell (Nissui Pharmaceutical Co., Ltd.) under conditions of 37° C., 5% CO2. The exchange of the culture fluid was performed every other day. The cells proliferated to confluent state were sub-cultured. 5×10^4 cells/mL of cell suspension was disseminated in an amount of 500 μL/well to a gelatin-coated 24 well plate (Iwaki). A few days later, the culture medium was removed after confirming that the cells were proliferated to confluent state, and changed to 480 μL/well of Dulbecco's Modified Eagle's Medium (DMEM; GIBCO-BRL)). The compound A was adjusted to become 50 times larger than the addition final concentration in DMEM after the dissolution of the compound A to dimethyl sulfoxide (DMSO). The sterilization was performed by using 0.22 μm filter for filtration sterilization (Millex, MILLIPORE). […]
The evaluation was performed by means of WST-1 method (modulated MTT method) with the use of Cell Counting Kit (DOJINDO). […] After that, 200 μL/well of the culture supernatant was collected, and then the absorbance (450 nm) was measured. The cell death inhibitory rate of the test substance treated group was calculated, regarding that the cell survival rate of the control group (untreated group) as a standard (100%).

[3] = system: cerebral hemorrhage model with the use of SHR; assay: Cerebral hemorrhage in MCA occlusion-recanalization model, intracerebral hemoglobin by Drabkin's reagent; type: in vivo, rat; conditions: 3 mg/kg/h continuous i.v. for 9 hours right after occlusion; measured 24 hours after MCA occlusion; sham 13.0±1.1, saline 25.5±2.2
Method: For the animal, a male spontaneously hypertensive rat (hereinafter abbreviated to SHR) (14 to 15 week old); Japan Charles River) was used. The preparation of middle cerebral artery (hereinafter abbreviated to MCA) occlusion-recanalization model of rat was performed according to the method of Koizumi, et al., (in Stroke 8: 1-7, 1986). In particular, the rat was subjected to anesthetic induction by 4% halothane (halothane vaporizer, Shinano Co., Ltd.) in 30% oxygen/70% air. The anesthesia was maintained by means of 2.5% halothane. The animal was placed in a dorsal position. The dissection of anterior neck midline was performed, the left side of the common carotid artery and the external carotid artery were exfoliated from the surrounding connective tissue around the left carotid artery bifurcation, and then a thread was hooked around the artery to ligate, respectively. Afterwards, the left internal carotid artery was exfoliated from the surrounding connective tissue, and then a thread was hooked around the artery. […] An amount of cerebral hemorrhage was measured 24 hours after the MCA occlusion.
An amount of cerebral hemorrhage was measured on the basis of the content of intracerebral hemoglobin (Hb) as an indicator according to a method of Asahi et al. (J Cereb Blood Flow Metab 20: 452-457, 2000)). […] Afterwards, absorbance was measured at 540 nm of photometry wavelength. […]

[4] = rat, in vivo, iv, 30 mg/kg
Method: (§1) A rat (male Sprague Dawley (SD) rat, 7 weeks old; Shimizu Laboratory Supplies Co., Ltd. (SLC))) was anesthetized with urethane (1.2 g/6 mL/kg, i.p.), and then the animal was placed on an incubation mat (Microtemp, Seabrook Medical Systems) set to 37° C. after indwelling a catheter (EMS cutdown tube, JMS Co., Ltd.) made of vinyl chloride in a left femoral vein for administration of a test substance. […] Five minutes after the administration, a tip of the tail was cut at the position of 2 mm with a razor (single-edged feather), and immediately, the tail was immersed in saline (Otsuka normal saline) warmed to 37° C. Finally, the time until the hemorrhage was stopped (30 minutes at a maximum) was measured, which was regarded as bleeding time.

[5] = Influence of PARP inhibitor on bleeding time (rat tail cut); conditions: male SD rat, intravenous bolus, tail tip cut 5 minutes after administration, 30 minutes at a maximum; compound A 30 mg/kg, heparin 100 U/kg; saline control about 15 minutes
Method: as §1

Compound	content of intracerebral hemoglobin ([1]; 1 mg/kg/h)	content of intracerebral hemoglobin ([1]; 3 mg/kg/h)	content of intracerebral hemoglobin ([1]; 10 mg/kg/h)	inhibitory effect of the vascular endothelial cell disorder (cell death inhibitory rate) [2]	content of intracerebral hemoglobin [3]	bleeding time [4]	bleeding time [5]
O=C(Cc1n[nH]c(=O)c2c1CCCC2)NCCCCN1CCOCC1 [compound A, 4-(N-(4-(morpholin-4-yl)butyl)carbamoylmethyl)-5,6,7,8-tetrahydrophthalazin-1(2H)-one]	15.4 ± 2.19 µg/mL	15.5 ± 2.14 µg/mL	10.3 ± 1.24 µg/mL	showed an inhibitory effect of the vascular endothelial cell disorder dose-dependently	17.7 ± 1.3 µL	about 15 minutes	
heparin							≥ 30 min

Source: patent US20090226412A1, “AGENT FOR REDUCTION OF BLEEDING IN CEREBROVASCULAR DISORDER” (ONO PHARMACEUTICAL CO., LTD.,, priority 2005, published 2009)
